Laboratory results from the NIST ThermoML archive (doi:10.1021/acs.jced.5b00049).

Assay: xn = mol fraction of the nth substance listed
Conditions: Liquid

CCCCCCCCCCCCCC [tetradecane] + O=C=O
Conditions | mass density [kg/m3]
312.99 K, 19070 kPa, x2 = 0.7534 | 819.95
313 K, 15040 kPa, x2 = 0.7534 | 811.66
313.01 K, 17010 kPa, x2 = 0.7534 | 815.79
313.01 K, 18060 kPa, x2 = 0.7534 | 817.99
313.05 K, 10040 kPa, x2 = 0.7534 | 799.71
313.05 K, 11940 kPa, x2 = 0.7534 | 804.49
313.07 K, 10010 kPa, x2 = 0.2469 | 761.87
313.08 K, 12050 kPa, x2 = 0.2469 | 763.39
313.08 K, 13990 kPa, x2 = 0.2469 | 764.87
313.08 K, 16020 kPa, x2 = 0.2469 | 766.36
313.09 K, 18000 kPa, x2 = 0.2469 | 767.75
313.11 K, 19000 kPa, x2 = 0.2469 | 768.47
313.12 K, 13940 kPa, x2 = 0.7534 | 809.04
313.12 K, 19060 kPa, x2 = 0.8773 | 833.41
313.13 K, 16010 kPa, x2 = 0.7534 | 813.59
313.14 K, 13040 kPa, x2 = 0.7534 | 806.93
313.16 K, 11930 kPa, x2 = 0.5241 | 778.74
313.16 K, 19060 kPa, x2 = 0.5241 | 785.72
313.17 K, 12990 kPa, x2 = 0.8773 | 810.26
313.17 K, 13930 kPa, x2 = 0.5241 | 780.74
313.17 K, 14050 kPa, x2 = 0.8773 | 813.95
313.18 K, 16020 kPa, x2 = 0.8773 | 822.71
313.18 K, 17010 kPa, x2 = 0.8773 | 826.33
313.19 K, 9970 kPa, x2 = 0.8773 | 799.39
313.19 K, 10110 kPa, x2 = 0.5241 | 776.82
313.19 K, 18040 kPa, x2 = 0.8773 | 829.7
313.2 K, 11990 kPa, x2 = 0.8773 | 806.52
313.21 K, 18060 kPa, x2 = 0.5241 | 784.76
313.23 K, 15010 kPa, x2 = 0.8773 | 818.7
313.35 K, 16050 kPa, x2 = 0.5241 | 782.84
323.11 K, 10980 kPa, x2 = 0.8773 | 783.24
323.11 K, 14020 kPa, x2 = 0.2469 | 757.81
323.11 K, 19020 kPa, x2 = 0.8773 | 809.81
323.12 K, 16020 kPa, x2 = 0.2469 | 759.35
323.14 K, 10120 kPa, x2 = 0.2469 | 754.69
323.14 K, 12060 kPa, x2 = 0.2469 | 756.22
323.14 K, 13020 kPa, x2 = 0.8773 | 788.73
323.14 K, 14050 kPa, x2 = 0.8773 | 791.99
323.14 K, 16040 kPa, x2 = 0.8773 | 799.2
323.14 K, 17040 kPa, x2 = 0.8773 | 801.18
323.14 K, 18060 kPa, x2 = 0.8773 | 805.9
323.14 K, 18980 kPa, x2 = 0.2469 | 761.61
323.15 K, 10070 kPa, x2 = 0.7534 | 782.23
323.15 K, 12030 kPa, x2 = 0.7534 | 787.2
323.15 K, 12050 kPa, x2 = 0.8773 | 786.07
323.15 K, 13000 kPa, x2 = 0.7534 | 789.82
323.15 K, 14020 kPa, x2 = 0.7534 | 791.84
323.15 K, 15060 kPa, x2 = 0.7534 | 794.75
323.15 K, 16040 kPa, x2 = 0.7534 | 796.67
323.15 K, 17010 kPa, x2 = 0.7534 | 799.28
323.15 K, 18070 kPa, x2 = 0.7534 | 801.5
323.15 K, 19020 kPa, x2 = 0.7534 | 803.65
323.16 K, 15050 kPa, x2 = 0.8773 | 795.16
323.19 K, 17960 kPa, x2 = 0.2469 | 760.81
323.21 K, 16080 kPa, x2 = 0.5241 | 773.72
323.22 K, 18050 kPa, x2 = 0.5241 | 775.72
323.22 K, 19040 kPa, x2 = 0.5241 | 776.7
323.23 K, 10030 kPa, x2 = 0.5241 | 767.22
323.23 K, 12040 kPa, x2 = 0.5241 | 769.42
323.23 K, 13980 kPa, x2 = 0.5241 | 771.51
333.07 K, 10050 kPa, x2 = 0.7534 | 764.82
333.07 K, 14030 kPa, x2 = 0.7534 | 774.55
333.07 K, 17060 kPa, x2 = 0.7534 | 782.56
333.07 K, 18060 kPa, x2 = 0.7534 | 784.44
333.09 K, 10100 kPa, x2 = 0.5241 | 757.94
333.11 K, 13040 kPa, x2 = 0.7534 | 771.85
333.11 K, 16040 kPa, x2 = 0.2469 | 752.33
333.11 K, 18060 kPa, x2 = 0.5241 | 766.9
333.11 K, 18060 kPa, x2 = 0.8773 | 785.49
333.12 K, 15020 kPa, x2 = 0.7534 | 777.38
333.12 K, 16040 kPa, x2 = 0.7534 | 779.31
333.13 K, 10010 kPa, x2 = 0.2469 | 747.3
333.13 K, 13970 kPa, x2 = 0.2469 | 750.65
333.13 K, 19050 kPa, x2 = 0.8773 | 788.14
333.13 K, 19080 kPa, x2 = 0.5241 | 767.96
333.14 K, 16050 kPa, x2 = 0.8773 | 779.75
333.14 K, 17040 kPa, x2 = 0.8773 | 782.59
333.15 K, 11930 kPa, x2 = 0.5241 | 760.02
333.15 K, 12060 kPa, x2 = 0.2469 | 749.05
333.15 K, 15990 kPa, x2 = 0.5241 | 764.66
333.15 K, 17980 kPa, x2 = 0.2469 | 753.84
333.16 K, 18980 kPa, x2 = 0.2469 | 754.7
333.17 K, 12050 kPa, x2 = 0.7534 | 769.75
333.17 K, 19050 kPa, x2 = 0.7534 | 786.81
333.18 K, 14030 kPa, x2 = 0.8773 | 774.07
333.19 K, 13020 kPa, x2 = 0.8773 | 771.46
333.2 K, 13970 kPa, x2 = 0.5241 | 762.35
333.22 K, 15040 kPa, x2 = 0.8773 | 776.33
343.18 K, 13030 kPa, x2 = 0.7534 | 757.6
343.2 K, 14070 kPa, x2 = 0.7534 | 759.71
343.22 K, 10080 kPa, x2 = 0.5241 | 748.36
343.24 K, 18020 kPa, x2 = 0.2469 | 746.97
343.25 K, 10080 kPa, x2 = 0.2469 | 739.8
343.25 K, 12000 kPa, x2 = 0.2469 | 741.71
343.25 K, 13970 kPa, x2 = 0.5241 | 753.12
343.26 K, 11930 kPa, x2 = 0.5241 | 750.66
343.26 K, 17070 kPa, x2 = 0.8773 | 763.58
343.27 K, 16010 kPa, x2 = 0.2469 | 745.25
343.27 K, 19050 kPa, x2 = 0.2469 | 747.79
343.28 K, 16050 kPa, x2 = 0.8773 | 759.7
343.28 K, 18030 kPa, x2 = 0.7534 | 768.86
343.29 K, 11990 kPa, x2 = 0.7534 | 755.9
343.29 K, 15010 kPa, x2 = 0.8773 | 756.06
343.3 K, 18040 kPa, x2 = 0.8773 | 766.93
343.32 K, 15970 kPa, x2 = 0.7534 | 764.11
343.32 K, 19050 kPa, x2 = 0.8773 | 770.12
343.34 K, 14060 kPa, x2 = 0.2469 | 743.54
343.34 K, 16930 kPa, x2 = 0.7534 | 766.37
343.36 K, 18040 kPa, x2 = 0.5241 | 757.81
343.37 K, 15000 kPa, x2 = 0.7534 | 761.76
343.37 K, 15990 kPa, x2 = 0.5241 | 755.45
343.37 K, 19030 kPa, x2 = 0.7534 | 770.9
343.39 K, 19080 kPa, x2 = 0.5241 | 758.96
353.36 K, 9980 kPa, x2 = 0.5241 | 738.86
353.36 K, 12050 kPa, x2 = 0.7534 | 743.36
353.39 K, 11960 kPa, x2 = 0.5241 | 741.42
353.39 K, 17030 kPa, x2 = 0.7534 | 753.15
353.39 K, 18060 kPa, x2 = 0.5241 | 748.96
353.4 K, 18070 kPa, x2 = 0.2469 | 741.03
353.41 K, 13000 kPa, x2 = 0.7534 | 744.77
353.43 K, 11990 kPa, x2 = 0.2469 | 735.13
353.43 K, 14020 kPa, x2 = 0.5241 | 744.02
353.43 K, 16060 kPa, x2 = 0.5241 | 746.56
353.44 K, 19060 kPa, x2 = 0.5241 | 750.06
353.46 K, 15040 kPa, x2 = 0.7534 | 748.68
353.46 K, 15990 kPa, x2 = 0.7534 | 750.82
353.46 K, 18010 kPa, x2 = 0.8773 | 751.14
353.46 K, 18040 kPa, x2 = 0.7534 | 755.21
353.47 K, 14010 kPa, x2 = 0.7534 | 746.82
353.47 K, 19020 kPa, x2 = 0.2469 | 741.82
353.47 K, 19040 kPa, x2 = 0.8773 | 754.52
353.48 K, 9970 kPa, x2 = 0.2469 | 733.1
353.48 K, 14000 kPa, x2 = 0.2469 | 737.01
353.48 K, 17020 kPa, x2 = 0.8773 | 747.37
353.52 K, 16030 kPa, x2 = 0.2469 | 738.93
353.54 K, 18990 kPa, x2 = 0.7534 | 756.97
